Test results as given in patent US7947653B1, “Methods for treating epidermal growth factor receptor tyrosine kinase inhibitor-resistant cancers” (Cold Spring Harbor Laboratory, priority 2009, dated 2011).

Key:
[1] = system: NCI-H1650 M3 cells; assay: Sensitivity to erlotinib, MTT assay, erlotinib-resistant cells; format: cell-based, human
Protocol: Viability was measured by MTT assay relative to untreated cells, with each data point showing the average of four replicates.

[2] = system: phospho-STAT3; assay: Western blot for phospho-STAT3, NCI-H1650 M3 cells; format: cell-based, human
Protocol: (§1) Adherent cells were washed with 1×PBS and whole cell lysate was extracted and western blot analysis was performed as previously described (Sordella et al. Science 305, 1163-1167; 2004). Antibodies against phosphor-EGFR (Tyr1068), total Akt, phospho-Akt (Ser473), total ERK 1/2, phospho-ERK 1/2 (Thr202/tyr204), phospho-STAT3 (Tyr705), cleaved PARP and phospho-MET (Tyr1234/Tyr1235) were purchased from Cell Signaling Technology (Danvers, Mass.). Total cMET and total EGFR antibodies were purchased from Santa Cruz Biotechnology (Santa Cruz, Calif.). The antibody against total STAT3 was purchased from BD Biosciences (San Jose, Calif.).
To determine whether IL-6 was the autocrine factor responsible for promoting STAT3 phosphorylation in the erlotinib-resistant cells, the expression of IL-6 was inhibited using siRNA technology. Briefly, NCI-H 1650 M3 cells were transfected with siRNA targeting IL-6 (siRNA I and II) or a non-specific siRNA (siRNA III) using Lipofectamine 2000 at a final concentration of 30 nM siRNA. After 6 days cell extracts were analyzed by immunoblotting for phospho-STAT3, STAT3 and tubulin. […] Thus, an increased secretion of IL-6 was responsible for the observed STAT3 phosphorylation. […] Cell extracts were analyzed by immunoblot for phospho-STAT3 and total STAT3. […]

[3] = system: NCI-H1650 cells; assay: Mouse xenograft model, tumor burden; format: in vivo, Nu/Nu mice; conditions: topical TPA 5 days, then erlotinib by oral gavage versus DMSO
Protocol: The in vivo mouse experiments were performed by inoculating subcutaneously 3×10^6 NCI-H1650 cells subcutaneously into each flank of immunodeficient Nu/Nu mice in Swiss CD 1 background (Charles River Breeding Laboratories, Wilmington, Mass.). After the tumors reached a volume of approximately 100 mm^3, mice were treated topically every 2 days with TPA (10 μL of 0.25 mg/mL solution in acetone) or with acetone for 5 days. […] Tumor volume was monitored with a digital caliper and calculated using the following formula: (length)×(width)^2/2.
IL-6 is a pleiotropic cytokine that exerts important biological functions in a wide variety of systems and processes (e.g., inflammation, acute-phase reaction, nervous and endocrine systems, bone metabolism, hematopoiesis). […] Cutaneous inflammation and secretion of IL-6 by topic treatment of the mouse epidermis with low dose of 12-O-tetradecanoyl-phorbol-13-acetate (TPA) every other day was induced in a Nu/nu mouse model (Vasunia et al. Carcinogenesis 1994, 15: 653). Acetone was used as a vehicle control. The Nu/nu mice were subsequently injected in the flank with NSCLC expressing mutant EGFR.
After 8 days, tumor burden was evaluated and the averages of four separate tumors were charted.

[4] = system: IL-6; assay: IL-6 immunostaining of tumor sections; format: in vivo, Nu/Nu mice; conditions: TPA-treated versus acetone-treated mice, topical
Protocol: Formalin-fixed, paraffin-embedded sections (4 μm) were stained for IL-6. Sections were de-embedded and rehydrated and epitope retrieval was performed by heating the sections in 0.01M citrate buffer at pH 6.0 in a microwave oven for 10 minutes. Endogenous peroxidase activity was blocked by treatment with 3% hydrogen peroxide in PBS for 10 minutes. After washing with PBS the blocking was performed using the Avidin/Biotin blocking kit (Vector laboratories, Cambridge, UK), Super Block (ID laboratories, London, CDN) and Mouse Block (ID laboratories, London, CDN). The sections were incubated with the primary antibody IL-6 (ab6672; Abcam, Cambridge, UK) in 1:300 dilution at 4° C. overnight. The IHC detection was done with the IDetect Super Stain System HRP (ID laboratories, London, CDN). […]
Protein expression was measured by defining regions of interest (ROI) using automated cell acquisition and quantification software for Immunohistochemistry (Histoquest™) and immunofluorescence (Tissuequest™).
Immunostaining of tumor sections using an anti-IL-6 antibody confirmed that TPA was able to augment IL-6 expression in the tumors. […] The levels of IL-6 in tumor matters were further measured by defining regions of interest (ROI) using automated cell acquisition and quantification software for immunohistochemistry (Histoquest™) or quantification software for immunofluorescence (Tissuequest™). […]

[5] = system: NCI-H1650; assay: Sensitivity to erlotinib, MTT assay; format: cell-based; conditions: Homo sapiens, read-out: IC50 to either gefitinib or erlotinib treatment; NCI-H1650, EGFR delE746-A750; 'typically displays'
[6] = system: phospho-STAT3; assay: Western blot for phospho-STAT3, parental cells; format: cell-based, human
Protocol: as §1
(§2) Cell extracts were analyzed by immunoblotting with antibodies specific to Tubulin, AKT, P-AKT, STAT3, and P-STAT3.

[7] = system: P-EGFR; assay: Western blot for P-EGFR, parental and resistant cells; format: cell-based, human; conditions: parental versus NCI-H1650 M3, erlotinib 0.01-10 μM, 3 hours
From the text: as §1, with “Antibodies” for “Adherent cells were washed with 1×PBS and whole cell lysate was extracted and western blot analysis was performed as previously described (Sordella et al. Science 305, 1163-1167; 2004). Antibodies”

[8] = system: P-AKT; assay: Western blot for P-AKT; format: cell-based, human
Protocol: as §1, with “Antibodies” for “Adherent cells were washed with 1×PBS and whole cell lysate was extracted and western blot analysis was performed as previously described (Sordella et al. Science 305, 1163-1167; 2004). Antibodies”
as §2

[9] = system: cleaved PARP; assay: Immunoblot for cleaved PARP (apoptosis); format: cell-based, human
Protocol: as §1
Cells not treated with the drug were used as a control. Cell extracts obtained after 72 hours were analyzed by immunoblotting for cleaved PARP (CL-PARP), an indicator of apoptosis status.

[10] = system: IL-6; assay: IL-6 ELISA of cell media; format: cell-based, human; conditions: NCI-H1650 M3, in the presence of erlotinib 10 μM
Protocol: Cells were grown to approximately 80% confluency. Cells were washed with 1×PBS and fresh media was added. After 24 hours the supernatant was collected and analyzed for IL-6 using an ELISA kit (Diaclone, Canton, Mass.) following the manufacturers instruction.
The mRNA levels of various secreted proteins, including HGF, EGF, LIF, CNTF, IL-1A, IL-11, OSM and IL-6 (which are known to increase STAT3 phosphorylation), were examined by RT-PCR, the results normalized against beta-actin mRNA levels. No substantial levels of HGF were detected in either the parental-sensitive cells or in the resistant cells. Among these protein factors, a substantial increase in IL-6 mRNA levels was found in the resistant cells as compared to parental cells. This increase in IL-6 mRNA expression correlated with augmented levels of the protein secretion as determined by enzyme-linked immunosorbent assay (ELISA). See FIG. 2, Panel A; levels of IL-6 were measured by ELISA with each point representing the average of four data points.

[11] = system: PC9 cells; assay: Sensitivity to erlotinib with IL-6, MTT assay; format: cell-based, human; conditions: PC9, 10 ng/ml IL-6 24 hours, then erlotinib at various concentrations 72 hours
[12] = system: NCI-H1650 cells; assay: Soft agar assay; format: cell-based, human; conditions: NCI-H1650, erlotinib with or without IL-6 (10 ng/ML)
Protocol: Cells were plated in triplicate in 12-well plates at 5000 cells/well, mixed in RPMI-1640, 5% FBS and 0.35% agarose. Cells were cultured for 20 days in presence of the indicated treatment. Colonies were visualized by staining with tetrazolium salt (Schaeffer W. I., Friend K. (1976) Cancer Lett 1:259-262). The number of colonies were determined using the J-Image software (htpp://rsbweb.hih.gov/ij/) on Z-stack images (Z=1.5 mm) at 5× magnification. Each data point represents the average of 3 fields from 3 individual wells.
The numbers of cell colonies were countered after a suitable period of time. The number of colonies were determined using the J-image software on Z-stack images (Z=1.5.mm) at 5× magnification. […] See FIG. 3, Panel C (each point represents the average of 3 fields from individual wells). […] See FIG. 3, Panel D (each bar representing the average of 4 replicates).

[13] = system: NSCLC cell lines expressing mutant EGFR; assay: Cell proliferation upon stimulation with IL-6; format: cell-based, human; conditions: stimulation with IL-6 (10 ng/ml)
[14] = cells grown with or without IL-6, then erlotinib 4 hours, cell line not stated

For `CC(C)(C)c1nc2c3ccc(F)cc3c3c(=O)[nH]ccc3c2[nH]1` [P6, 2-tert-butyl-9-fluoro-3,6-dihydro-7H-benz[h]-imidaz[4,5-f] isoquinoline-7-one], the “cell viability upon erlotinib treatment” value ([1]; NCI-H1650 M3, P6 2 μM) was “significantly decreased” and the STAT3 phosphorylation levels ([2]; NCI-H1650 M3, 2 μM, 2 days) was “decreased”.

With `CCCCCCCCCCCCCC(=O)O[C@@H]1[C@@H](C)[C@@]2(O)[C@@H](C=C(CO)C[C@]3(O)C(=O)C(C)=C[C@@H]23)[C@@H]2C(C)(C)[C@]12OC(C)=O` [TPA, 12-O-tetradecanoyl-phorbol-13-acetate] the “tumor response to erlotinib treatment (tumor burden)” value [3] was “dramatically reduced” and the “IL-6 mean intensity in tumors” value [4] was “much higher”.

For `C#Cc1cccc(Nc2ncnc3cc(OCCOC)c(OCCOC)cc23)c1` [erlotinib, N-(3-ethynylphenyl)-6,7-bis(2-methoxyethoxy)quinazolin-4-amine], the IC50 [5] was ~5 µM, the “erlotinib concentration in the presence of which the isolated cell line is capable of growing” value ([1]; NCI-H1650 M3, selected in constant high erlotinib) was “up to 30 μM” and the “cell viability of NCI-H1650 M3 cells versus parental cells” value ([1]; erlotinib 0.3125-10 μM, 72 hours, particularly at high concentrations) was “much higher than that of the parental cells”. For the same compound, the “phosphorylated STAT3” value ([6]; parental NCI-H1650 cells, high erlotinib concentrations, 3 hours) was “undetectable”, the STAT3 phosphorylation levels ([2]; NCI-H1650 M3, erlotinib up to 10 μM, 3 hours) was “maintained high STAT3 phosphorylation levels” and the “EGFR phosphorylation levels upon erlotinib treatment” value [7] was “comparable inhibition”. The “levels of phosphorylation of AKT” value ([8]; parental versus NCI-H1650 M3, erlotinib treatment) was “similarly inhibited”, the “cleavage of PARP upon erlotinib treatment” value ([9]; NCI-H1650 M3 compared to parental cells, erlotinib 10 μM, 24 hours) was “substantial decrease” and the “level of CL-PARP in erlotinib-treated cells compared to control cells” value ([9]; resistant cells, extracts after 72 hours) was “significantly increased”. For the same compound, the “IL-6 levels in the media (ELISA)” value [10] was “did not change”.

In the case of “IL-6: Recombinant Interleukin-6 (rhIL6) from R&D systems”, the “effect on erlotinib-mediated inhibition of STAT3 phosphorylation” value [6, 14] is reported as “impaired inhibition of STAT3 phosphorylation”, the “effect on erlotinib-mediated inhibition of AKT activation” value [8, 14] is reported as “did not have any effect” and the “CL-PARP levels in the drug treated cells” value ([9]; resistant cells grown with IL-6 24 hours, then erlotinib, 72 hours) is reported as “decreased CL-PARP levels”. For the same compound, the “cell resistance to erlotinib (viability by MTT)” value [11] was “increased PC9 cell resistance to erlotinib”, the “cell resistance to erlotinib (number of colonies in soft agar)” value [12] was “significantly increased cell resistance to erlotinib” and the cell proliferation [13] was “No substantial changes”.
